Results from patent US20080199439A1, “IAP-binding cargo molecules and peptidomimetics for use in diagnostic and therapeutic methods” (priority 2003, published 2008).

Assays:
recombinant XIAP-BIR3 = recombinant XIAP-BIR3 (Homo sapiens, UniProt P98170); settings: 550 nm peak of free AVPC-badan; binding to recombinant XIAP-BIR3
Text: Without wishing to be bound by theory, upon binding to an IAP protein, the labeled IAP-binding cargo molecule packs into the groove of the BIR3 (SEQ ID NO: 15) causing a detectable shift in emission maximum and intensity when the environment of the fluorophore changes from water to the hydrophobic pocket of the protein.

HeLa cells [1] = settings: compared with Smac N-terminal tetrapeptide AVPI
Text: This example illustrates the use of an labeled IAP-binding cargo molecule to bind with IAP within cells and tissues and inducing apoptosis.

HeLa cells [2] = system: HeLa cells; set-up: dose or concentration left out as unconfirmed; settings: 48 minutes, confocal microscopy
HeLa cells [3] = test: Competition of AVPC-badan emission by AVPF in HeLa cells; type: cell-based; settings: AVPC-badan 0.1 mM, 100 equivalents AVPF, 30 minutes, emission 435-485 nm
Protocol: (§1) The emission between 435-485 nm after exposure of cells for 30 minutes is shown in each case. […] The emission between 385-470 nm and >505 nm after exposure of cells for 36 minutes is shown in each case;
(§2) Thus, the primary action of the IAP binding cargo molecule appears to be by binding to IAP proteins, thus releasing any activated caspases and thereby promoting apoptosis.

A498 cells = test: Competition of AVPC-badan emission by AVPF in A498 cells; type: cell-based; settings: AVPC-badan 8 mM, 100 equivalents AVPF, 36 minutes, emission 385-470 nm and >505 nm
Protocol: as §1, §2

recombinant XIAP-BIR3, sequence (P98170 265-330 limits assumed): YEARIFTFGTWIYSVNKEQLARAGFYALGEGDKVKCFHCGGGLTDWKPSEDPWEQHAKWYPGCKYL

Row | Molecule | change of emission peak and intensity on binding (recombinant XIAP-BIR3) | induction of apoptosis (kinetics) (HeLa cells [1]) | intracellular localization of the peptide (HeLa cells [2]) | effect of competitor on intensity of AVPC-badan emission (HeLa cells [3]) | effect of competitor on intensity of AVPC-badan emission (A498 cells)
1 | CC(N)C(=O)NC(C(=O)N1CCCC1C(=O)NC(CSCC(=O)c1ccc2cc(N(C)C)ccc2c1)C(=O)O)C(C)C (centres unmarked) [AVPC-badan] | shifts to 542 nm and increases in intensity | induced apoptosis with kinetics similar to those of the Smac N-terminal tetrapeptide AVPI | diffuse cytosolic distribution |  | 
2 | AVPF: competitor peptide AVPF (SEQ ID NO: 19) |  |  |  | intensity of emission was found to diminish | intensity of emission was found to diminish
